Test results as given in patent US12533348B2, “Ferroportin-inhibitors for the use in the treatment of transfusion-dependent beta-thalassemia (TDT)” (Vifor (International) AG, priority 2019, dated 2026).
Several values for one entry are separate records, joined by “and”; a condition that tells them apart may be missing. Identical values can stand only once.

Assays:
[1] = Combination study DFX/Fpn127: clinical observations, mortality and body weight; assay type: in vivo, mouse; details: for BW: th3/+ mice, mean
Description: (§1) One day after switching to lid a blood sample was taken by tail vein incision to determine the baseline Hb levels. Hb was measured using a HaemoCue® device. Hb was also measured on days 8, 15, and 22 in the morning before dosing. The animals were dosed p.o. D with 30 mg/kg DFX in 30% Kolliphor, 120 mg/kg Fpn127 in 0.5% C, or both for a total of 17 doses during the 23 days of study. 30% Kolliphor and 0.5% C were dosed as vehicles. The dose of DFX was administered at the beginning of the dark cycle (active phase) at 9:00 followed by 3 h of access to lid. Then, mice were dosed with Fpn127 (or 0.5% C) and were given access to sd for a 6 h period before switched back to lid. On the dosing was paused and mi had access to lid ad libitum.
Animals and their cages were checked daily by the experimenter during the study on working days. During the experimental phase, animals were weighted minimum once per week and scored according to their clinical symptoms: BW, general behavior and activity, appearance of hair coat, eyes, and nose. Clinical observations were recorded when present on separate score sheets.
BW was recorded once before the start of the experimental phase on day −1. During the experimental phase, individual BW were recorded 1 to 2 times per week to calculate the dosing volume and to monitor weight loss.

[2] = system: Hbb^th3/+ mouse model of β-thalassemia intermedia; test: Combination study: hemoglobin (HemoCue photometer); assay type: in vivo; details: th3/+ mice, DFX 30 mg/kg QD, Fpn127 120 mg/kg QD p.o., mean
Description: as §1
Hb was measured on days 1, 8, 15 and 22. Individual Hb values were determined at the starting day of the experiment (day 1) and weekly thereafter during the experimental phase in the morning before the first daily dose. A blood sample was taken by tail vein incision and Hb was measured using a HemoCue® DM201 Hb photometer.

[3] = system: Hbb^th3/+ mouse model of β-thalassemia intermedia; test: Combination study: complete blood counts (ProCyte Dx); assay type: in vivo
Description: Complete blood counts were performed on fresh EDTA-blood on an automated blood cell analyzer (ProCyte Dx®, IDEXX Laboratories) in-house.

[4] = system: Hbb^th3/+ mouse model of β-thalassemia intermedia; test: Combination study: serum iron (MULTIGENT Iron assay), transferrin ELISA and calculated TSAT; assay type: in vivo; details: th3/+ mice, all animals, mean
Description: […] Anesthetized animals were subsequently euthanized by cervical dislocation.
Serum levels of iron were determined in triplicates using MULTIGENT Iron assay (Abbott Diagnostics, Cat. 6K95). Serum Transferrin (TO was measured in duplicates using a mouse-specific ELISA according to the manufacturer's instructions (Abcam, Cat. ab157724). Transferrin saturation (TSAT) was calculated using the formula: […]

[5] = system: Hbb^th3/+ mouse model of β-thalassemia intermedia; test: Combination study: serum EPO (DuoSet ELISA); assay type: in vivo; details: serum; th3/+ mice; day 23; DFX 30 mg/kg QD, Fpn127 120 mg/kg QD p.o.; all animals; mean
Description: (§2) On day 23 (study end) 1 hour after dosing blood was collected by retro-orbital bleeding from pre-terminally anesthetized mice into BD Microtainer Tubes (Cat. 365967 and 365975) for determination of serum iron, transferrin, erythropoietin and compound exposure. Anesthetized animals were subsequently euthanized by cervical dislocation.
(§3) [formula] Serum EPO was measured using a mouse-specific DuoSet ELISA according to the manufacturer's instructions (R&D Systems, Cat. DY959). Plasma concentrations of Fpn127 and DFX were measured at GVK Biosciences, Hyderabad, IN. Flow Cytometric Analysis of Intracellular ROS, Mitochondria, and PS Exposure

[6] = Combination study: plasma concentrations of Fpn127 and DFX (LC-MS/MS); assay type: in vivo, mouse
Description: as §2, §3
Plasma was collected 1 hour after dosing of DFX on day 23 for determination of compound concentration by LC-MS/MS. Plasma exposure of DFX was similar in animals dosed with DFX alone or in combination with Fpn127 (FIG. 11, Table 12). […] As expected, plasma levels of Fpn127 were low as plasma was sampled approximately 20 h after the last dose of Fpn127.

[7] = system: Hbb^th3/+ mouse model of β-thalassemia intermedia; test: Combination study: flow cytometric analysis of intracellular ROS, mitochondria and PS exposure in mature RBC; assay type: in vivo; details: th3/+ mice, all animals; mature RBCs in whole blood at end of study (pre-terminally d22)
Description: In peripheral blood taken on day 22 by tail vein incision, ROS were detected with the indicator chloromethyl-2′,7′-dichlorodihydrofluorescein diacetate (CM-H2DCFDA, Invitrogen), the presence of mitochondria was detected with MitoTracker Deep Red FM (Invitrogen), and PS exposure was detected using the Annexin V Apoptosis Detection Kit (Invitrogen) in mature RBC labelled with Ter119 and CD71 antibodies.
For all analysis, cells were analyzed on a CANTOII cytometer (BD Biosciences) and data were analyzed using FlowJo® software (FlowJo, LLC, version 10.2).

[8] = th3/+ mice, DFX 30 mg/kg QD, Fpn127 120 mg/kg QD p.o., whole blood day 23, all animals, mean

SMILES: O=C(O)c1ccc(-n2nc(-c3ccccc3O)nc2-c2ccccc2O)cc1 [DFX, deferasirox, reference compound]
- tolerability / clinical symptoms ([1]; Hbb^th3/+ mice, DFX 30 mg/kg QD, Fpn127 120 mg/kg QD p.o., 17 doses in 23 days): generally well tolerated
- BW by the end of the study vs vehicle treated Hbb^th3/+ mice ([1]; males): slightly but significantly lower BW
- BW ([1]; DFX 30 mg/kg QD, Fpn127 120 mg/kg QD p.o., day 1, all animals): 21.5 g
- BW ([1]; DFX 30 mg/kg QD, Fpn127 120 mg/kg QD p.o., day 1, females): 19.2 ± 1.3 g and 19.2 g
- BW ([1]; DFX 30 mg/kg QD, Fpn127 120 mg/kg QD p.o., day 1, males): 23.7 ± 1.3 g and 23.7 g
- BW ([1]; DFX 30 mg/kg QD, Fpn127 120 mg/kg QD p.o., day 3, all animals): 23.2 g
- BW ([1]; DFX 30 mg/kg QD, Fpn127 120 mg/kg QD p.o., day 3, females): 20.9 g
- BW ([1]; DFX 30 mg/kg QD, Fpn127 120 mg/kg QD p.o., day 3, males): 25.6 g
- BW ([1]; DFX 30 mg/kg QD, Fpn127 120 mg/kg QD p.o., day 7, all animals): 23.2 g
- BW ([1]; DFX 30 mg/kg QD, Fpn127 120 mg/kg QD p.o., day 7, females): 21.0 g
- BW ([1]; DFX 30 mg/kg QD, Fpn127 120 mg/kg QD p.o., day 7, males): 25.4 g
- BW ([1]; DFX 30 mg/kg QD, Fpn127 120 mg/kg QD p.o., day 10, all animals): 22.9 g
- BW ([1]; DFX 30 mg/kg QD, Fpn127 120 mg/kg QD p.o., day 10, females): 20.6 g
- BW ([1]; DFX 30 mg/kg QD, Fpn127 120 mg/kg QD p.o., day 10, males): 25.2 g
- BW ([1]; DFX 30 mg/kg QD, Fpn127 120 mg/kg QD p.o., day 14, all animals): 23.0 g
- BW ([1]; DFX 30 mg/kg QD, Fpn127 120 mg/kg QD p.o., day 14, females): 20.7 g
- BW ([1]; DFX 30 mg/kg QD, Fpn127 120 mg/kg QD p.o., day 14, males): 25.2 g
- BW ([1]; DFX 30 mg/kg QD, Fpn127 120 mg/kg QD p.o., day 17, all animals): 22.8 g
- BW ([1]; DFX 30 mg/kg QD, Fpn127 120 mg/kg QD p.o., day 17, females): 20.4 g
- BW ([1]; DFX 30 mg/kg QD, Fpn127 120 mg/kg QD p.o., day 17, males): 25.2 g
- BW ([1]; DFX 30 mg/kg QD, Fpn127 120 mg/kg QD p.o., day 22, all animals): 23.3 g
- BW ([1]; DFX 30 mg/kg QD, Fpn127 120 mg/kg QD p.o., day 22, females): 20.8 g
- BW ([1]; DFX 30 mg/kg QD, Fpn127 120 mg/kg QD p.o., day 22, males): 25.9 g
- Hb concentration ([2]; day 1 (before dosing), all animals): 84 g/L
- Hb concentration ([2]; day 1 (before dosing), females): 86 ± 2 g/L and 86 g/L
- Hb concentration ([2]; day 1 (before dosing), males): 82 ± 3 g/L and 82 g/L
- Hb concentration ([2]; day 8, all animals): 98 g/L
- Hb concentration ([2]; day 8, females): 99 g/L
- Hb concentration ([2]; day 8, males): 96 g/L
- Hb concentration ([2]; day 15, all animals): 81 g/L
- Hb concentration ([2]; day 15, females): 82 g/L
- Hb concentration ([2]; day 15, males): 80 g/L
- Hb concentration ([2]; day 22, all animals): 86 g/L
- Hb concentration ([2]; day 22, females): 85 g/L
- Hb concentration ([2]; day 22, males): 88 g/L
- neutrophil counts ([3]; Hbb^th3/+ mice, day 23, potential inflammatory response): significantly increased
- HCT [3, 8]: 27.4%
- Leukocytes [3, 8]: 8.9 10E3/μL
- Lymphocytes [3, 8]: 7.4 10E3/μL
- MCH [3, 8]: 10.4 pg
- MCHC [3, 8]: 25.4 g/dL
- MCV [3, 8]: 41.1 fL
- Neutrophils [3, 8]: 1.2 10E3/μL
- RBC [3, 8]: 7.7 10E6/μL
- RDW [3, 8]: 47.0%
- RET [3, 8]: 1760 10E3/μL
- Ret-He [3, 8]: 12.8 pg
- TSAT ([4]; calculated from Tf and serum iron, day 23, 1 h after last DFX dose, approx. 20 h after last Fpn127 dose): 27.5%
- serum iron ([4]; day 23, 1 h after last DFX dose (30 mg/kg), approx. 20 h after last Fpn127 dose (120 mg/kg)): 30.8 ± 5.9 µM and 30.8 µM
- EPO [5]: 5277 ± 1710 pg/mL and 5277 pg/mL
- plasma exposure of DFX, alone vs in combination with Fpn127 ([6]; 1 hour after dosing of DFX on day 23 (FIG. 11)): similar
- concentration at 1 h ([6]; both sexes, Hbb^th3/+ (B6; 129P—b1tm1Unc-b2tm1Unc/J), mouse, oral, 30 mg/kg, th3/+ mice, all animals, plasma collected 1 hour after dosing of DFX on day 23, LC-MS/MS, read-out: Plasma exposure of DFX at the end of the study (mean)): 15400 ng/mL
- % Annex in V-positive RBCs (mean) [7]: 0.47%
- % Mito Tracker-positive RBCs (mean) [7]: 0.56%
- % ROS-positive RBCs (mean) [7]: 41.56%
